Data taken from patent US10501479B2, “Benzenesulfonyl-asymmetric ureas and medical uses thereof” (HELSINN HEALTHCARE SA, priority 2016, dated 2019).
Like-named read-outs stand apart in the source and are kept apart here.

Key:
[1] = target: T1, recombinant human ghrelin receptor (HEK293/GRLN) (Homo sapiens, UniProt Q92847); test: Ghrelin inverse agonist potency (EC50) with IP-1 (IP-One HTRF) assay; type: cell-based; conditions: IP-1 assay
T1 construct: expressed in transfected cells
Summary of the method: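 IP-1 accumulation was measured by HTRF (IP1-d2/Tb-cryptate, 620/665 nm read after 1 hour at room temperature) following 1 hour of compound treatment at 37° C. Cells were HEK293 stably expressing human ghrelin receptor, plated a day earlier on Matrigel. Inverse agonist potency was reported as EC50.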

[2] = target: T2, GHSR-1a (HEK293/GHSR1a cell line) (Homo sapiens, UniProt Q92847); test: Ghrelin agonist potency (EC50) with calcium FLIPR assay; type: cell-based
T2 construct: expressed in transfected cells; host or cells: HEK293/GHSR1a cell line
Summary of the method: (§1)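 The cells were plated a day ahead and loaded with a calcium-sensitive dye. Test compound was then added and incubated 15 min, followed by ghrelin. Antagonist potency was calculated from inhibition of the response to 10 nM ghrelin, and agonist potency from the calcium rise caused by compound alone.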

[3] = target: T2, GHSR-1a (HEK293/GHSR1a cell line); test: Ghrelin antagonist potency (IC50) with calcium FLIPR assay, ghrelin 10 nM; type: cell-based
Summary of the method: as §1

[4] = Metabolic stability in human liver microsomes; type: in vitro ADME
Summary of the method: (§2)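 First, microsomes and compound are preincubated 5 min at 37 °C in pH 7.4 phosphate buffer. Next, an NADPH regenerating system starts the reaction. Then aliquots are quenched cold at 10, 30 and 90 min, centrifuged and analysed by LC-MS/MS.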

[5] = Metabolic stability in mouse liver microsomes; type: in vitro ADME
Summary of the method: as §2

[6] = HEK293/GRLN, read-out: Activity EC50 (ghrelin inverse agonist potency)
[7] = HEK293/GHSR1a, read-out: Activity EC50/EMax: EC50 (ghrelin agonist potency)
[8] = HEK293/GHSR1a, ghrelin 10 nM, read-out: Activity IC50 (ghrelin antagonist potency)
[9] = ghrelin inverse agonist potency, read-out: Activity EC50
[10] = ghrelin agonist potency, read-out: Activity EC50/EMax
[11] = ghrelin antagonist potency, read-out: Activity IC50

T2 sequence (Q92847 whole entry): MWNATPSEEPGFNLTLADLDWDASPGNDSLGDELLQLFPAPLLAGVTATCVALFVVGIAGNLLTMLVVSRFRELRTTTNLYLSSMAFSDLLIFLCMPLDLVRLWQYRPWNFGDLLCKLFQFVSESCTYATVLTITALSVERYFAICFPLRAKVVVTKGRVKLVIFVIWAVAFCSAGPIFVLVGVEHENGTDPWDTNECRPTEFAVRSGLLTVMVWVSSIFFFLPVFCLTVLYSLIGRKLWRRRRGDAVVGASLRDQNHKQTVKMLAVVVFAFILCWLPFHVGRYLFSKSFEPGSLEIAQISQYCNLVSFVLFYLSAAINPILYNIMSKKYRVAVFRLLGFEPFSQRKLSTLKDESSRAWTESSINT
T1 sequence (Q92847 whole entry): as above

| SMILES | EC50 [1, 6] [nM] | EC50 [2, 7] [nM] | IC50 [3, 8] [nM] | Metabolic Stability Study H = human [4] | Metabolic Stability Study M = mouse [5] | EC50 [1, 9] [nM] | EC50 [2, 10] [nM] | IC50 [3, 11] [nM] |
| --- | --- | --- | --- | --- | --- | --- | --- | --- |
| C[C@H](NC(=O)Nc1ccc(S(=O)(=O)Cc2ccc3c(c2)CCN(C)CC3)cc1)c1ccccc1 [H1322, (S)-1-(4-(((3-methyl-2,3,4,5-tetrahydro-1H-benzo [d]azepin-7-yl)methyl)sulfonyl)phenyl)-3-(1-phenylethyl)urea] | 81.5 | > 30000 | 112 | 129 µL/min/mg | 171.1 µL/min/mg |  |  |  |
| COc1cc(NC(=O)N(O)C(C)c2ccccc2F)ccc1S(=O)(=O)Cc1ccc2c(c1)CN(C)C2 (stereo not shown) [H1511, 1-(1-(2-fluorophenyl)ethyl)-1-hydroxy-3-(3-methoxy-4-(((2-methylisoindolin-5-yl)methyl)sulfonyl)phenyl)urea] |  |  |  | 94.2 µL/min/mg | 44.5 µL/min/mg | 5.2 | > 30000 | 6.04 |
| CC(NC(=O)Nc1ccc(S(=O)(=O)Cc2ccc3c(c2)CNC3)cc1-c1cc[nH]n1)c1ccccc1 (stereo not shown) [H1519, 1-(4-((isoindolin-5-ylmethyl)sulfonyl)-2-(1H-pyrazol-3-yl)phenyl)-3-(1-phenylethyl)urea] |  |  |  | 47.3 µL/min/mg | 169.8 µL/min/mg | 4.6 | > 30000 | 12.1 |
| COc1cc(S(=O)(=O)Cc2ccc3c(c2)CN(C)C3)ccc1NC(=O)NC(C)c1cccc(Cl)c1Cl (stereo not shown) [H1427, 1-(1-(2,3-dichlorophenyl)ethyl)-3-(2-methoxy-4-(((2-methylisoindolin-5-yl)methyl)sulfonyl)phenyl)urea] | 0.7 | > 30000 | 3.8 | 58.8 µL/min/mg | 82.1 µL/min/mg |  |  |  |
| CC(NC(=O)Nc1ccc(S(=O)(=O)Cc2ccc3c(c2)CNC3)cc1)c1cccc(Cl)c1 (stereo not shown) [H1260, 1-(1-(3-chlorophenyl)ethyl)-3-(4-((isoindolin-5-ylmethyl)sulfonyl)phenyl)urea] | 4.4 | > 30000 | 3.7 | 38.9 µL/min/mg | 24.7 µL/min/mg |  |  |  |
| CC(NC(=O)Nc1ccc(S(=O)(=O)Cc2ccc3c(c2)CN(C)C3)cc1Cl)c1ccccc1 (stereo not shown) [H1456, 1-(2-chloro-4-(((2-methylisoindolin-5-yl)methyl)sulfonyl)phenyl)-3-(1-phenylethyl)urea] |  |  |  | 160.6 µL/min/mg | 137.8 µL/min/mg | 6.2 | > 30000 | 109 |
| COc1cc(S(=O)(=O)Cc2ccc3c(c2)CC(C)N(C)C3)ccc1NC(=O)NC(C)c1cccc(Cl)c1Cl (stereo not shown) [H1431, 1-(1-(2,3-dichlorophenyl)ethyl)-3-(4-(((2,3-dimethyl-1,2,3,4-tetrahydroisoquinolin-6-yl)methyl)sulfonyl)-2-methoxyphenyl)urea] | 0.657 | > 30000 | 4.54 | 99.7 µL/min/mg | 135.7 µL/min/mg |  |  |  |
| CC(NC(=O)Nc1ccc(S(=O)(=O)Cc2cc3c(s2)CCN(C)C3)cc1)c1cccc(Cl)c1Cl (stereo not shown) [H1359, 1-(1-(2,3-dichlorophenyl)ethyl)-3-(4-(((5-methyl-4,5,6,7-tetrahydrothieno[3,2-c]pyridin-2-yl)methyl)sulfonyl)phenyl)urea] | 4 | > 30000 | 1.5 | H = 108.6 M = 108.6 R = not reported D = not reported μL/min/mg | H = 108.6 M = 108.6 R = not reported D = not reported μL/min/mg |  |  |  |
| COc1ccccc1C(C)NC(=O)Nc1ccc(S(=O)(=O)Cc2ccc3c(c2)CNC3)cc1F.Cl (stereo not shown) [H1390, 1-(2-fluoro-4-((isoindolin-5-ylmethyl)sulfonyl)phenyl)-3-(1-(2-methoxyphenyl)ethyl)urea] | 10.7 | > 30000 | 36.4 | 34.6 µL/min/mg | 55.9 µL/min/mg |  |  |  |
| CC(NC(=O)Nc1ccc(S(=O)(=O)Cc2ccc3c(c2)CC(C)N(C)C3)cc1)c1ccccc1 (stereo not shown) [H1407, 1-(4-(((2,3-dimethyl-1,2,3,4-tetrahydroisoquinolin-6-yl)methyl)sulfonyl)phenyl)-3-(1-phenylethyl)urea] | 1.45 | > 30000 | 12.7 | 144.4 µL/min/mg | 84.1 µL/min/mg |  |  |  |
| CC(NC(=O)Nc1ccc(S(=O)(=O)Cc2cc3c(s2)CN(C)C3)cc1)c1ccccc1 (stereo not shown) [H1321, 1-(4-(((5-methyl-5,6-dihydro-4H-thieno[2,3-c]pyrrol-2-yl)methyl)sulfonyl)phenyl)-3-(1-phenylethyl)urea] | 23.2 | > 30000 | 47.5 | 85.3 µL/min/mg | 81.9 µL/min/mg |  |  |  |
| CC(NC(=O)Nc1ccc(S(=O)(=O)Cc2ccc3c(c2)CNC3)cc1)c1ccccc1F (stereo not shown) [H1272, 1-(1-(2-fluorophenyl)ethyl)-3-(4-((isoindolin-5-ylmethyl)sulfonyl)phenyl)urea] | 5.3 | > 30000 | 23.5 | 18.4 µL/min/mg | 18.6 µL/min/mg |  |  |  |
| COCCN1Cc2ccc(CS(=O)(=O)c3ccc(NC(=O)NC(C)c4ccccc4)cc3)cc2C1 (stereo not shown) [H1338, 1-(4-(((2-(2-methoxyethyl)isoindolin-5-yl)methyl)sulfonyl)phenyl)-3-(1-phenylethyl)urea] | 6.5 | > 30000 | 7.6 | 106.9 µL/min/mg | 242.1 µL/min/mg |  |  |  |
| COc1cc(NC(=O)N(O)C(C)c2ccccc2)ccc1S(=O)(=O)Cc1ccc2c(c1)CN(C)C2 (stereo not shown) [H1516, 1-hydroxy-3-(3-methoxy-4-(((2-methylisoindolin-5-yl)methyl)sulfonyl)phenyl)-1-(1-phenylethyl)urea] |  |  |  | 65.2 µL/min/mg | 35.1 µL/min/mg | 11.3 | > 30000 | 33.5 |
| COc1cc(S(=O)(=O)Cc2ccc3c(c2)CCNC3)ccc1NC(=O)NC(C)c1ccccc1 (stereo not shown) [H1386, 1-(2-methoxy-4-(((1,2,3,4-tetrahydroisoquinolin-6-yl)methyl)sulfonyl)phenyl)-3-(1-phenylethyl)urea] | 11.7 | > 30000 | 21.2 | < 10 µL/min/mg | 11 µL/min/mg |  |  |  |
| COc1cc(NC(=O)NC(C)c2ccccc2)ccc1S(=O)(=O)Cc1ccc2c(c1)CN(C)C2 (stereo not shown) [H1462, 1-(3-methoxy-4-(((2-methylisoindolin-5-yl)methyl)sulfonyl)phenyl)-3-(1-phenylethyl)urea] |  |  |  | 76.1 µL/min/mg | 15.8 µL/min/mg | 6.24 | > 30000 | 13.8 |
| CC(NC(=O)Nc1ccc(S(=O)(=O)Cc2ccc3c(c2)CN(C)C3)cc1)c1cccc2ccccc12 (stereo not shown) [H1302, 1-(4-(((2-methylisoindolin-5-yl)methyl)sulfonyl)phenyl)-3-(1-(naphthalen-1-yl)ethyl)urea] | 4.7 | > 30000 | 5.7 | 201.7 µL/min/mg | 164.1 µL/min/mg |  |  |  |
| CC(NC(=O)Nc1ccc(S(=O)(=O)Cc2cc3c(cc2F)CNCC3)cc1)c1cccc(Cl)c1Cl (stereo not shown) [H1385, 1-(1-(2,3-dichlorophenyl)ethyl)-3-(4-(((7-fluoro-1,2,3,4-tetrahydroisoquinolin-6-yl)methyl)sulfonyl)phenyl)urea] | 6.5 | > 30000 | 3.98 | H = <10 M = <10 μL/min/mg | H = <10 M = <10 μL/min/mg |  |  |  |
| CN1Cc2ccc(CS(=O)(=O)c3ccc(NC(=O)NC4CCCc5ccccc54)cc3)cc2C1 (stereo not shown) [H1312, 1-(4-(((2-methylisoindolin-5-yl)methyl)sulfonyl)phenyl)-3-(1,2,3,4-tetrahydronaphthalen-1-yl)urea] | 85.8 | > 30000 | 69 | 93.5 µL/min/mg | 117.5 µL/min/mg |  |  |  |
| C[C@@H](NC(=O)Nc1ccc(S(=O)(=O)Cc2ccc3c(c2)C(F)CN(C)C3)cc1)c1cccc(Cl)c1Cl (stereo partly drawn) [H1538, 1-((R)-1-(2,3-dichlorophenyl)ethyl)-3-(4-(((4-fluoro-2-methyl-1,2,3,4-tetrahydroisoquinolin-6-yl)methyl)sulfonyl)phenyl)urea] |  |  |  | 237.3 µL/min/mg | 354 µL/min/mg | 8.6 | > 30000 | 172 |
